Values quoted from earlier work, collected in US11596657B2, “Use of AhR agonist for the preventive or curative treatment of metabolic syndrome and the associated disorders” (INSTITUT NATIONAL DE LA RECHERCHE AGRONOMIQUE, priority 2016, dated 2023).

Tests used:
[1] = tested on: male C57Bl/6J mice fed a Western diet
human AhR = biological target: T1, human AhR (Homo sapiens, UniProt P35869); details: potency compared with TCDD
T1 sequence (P35869 11-848): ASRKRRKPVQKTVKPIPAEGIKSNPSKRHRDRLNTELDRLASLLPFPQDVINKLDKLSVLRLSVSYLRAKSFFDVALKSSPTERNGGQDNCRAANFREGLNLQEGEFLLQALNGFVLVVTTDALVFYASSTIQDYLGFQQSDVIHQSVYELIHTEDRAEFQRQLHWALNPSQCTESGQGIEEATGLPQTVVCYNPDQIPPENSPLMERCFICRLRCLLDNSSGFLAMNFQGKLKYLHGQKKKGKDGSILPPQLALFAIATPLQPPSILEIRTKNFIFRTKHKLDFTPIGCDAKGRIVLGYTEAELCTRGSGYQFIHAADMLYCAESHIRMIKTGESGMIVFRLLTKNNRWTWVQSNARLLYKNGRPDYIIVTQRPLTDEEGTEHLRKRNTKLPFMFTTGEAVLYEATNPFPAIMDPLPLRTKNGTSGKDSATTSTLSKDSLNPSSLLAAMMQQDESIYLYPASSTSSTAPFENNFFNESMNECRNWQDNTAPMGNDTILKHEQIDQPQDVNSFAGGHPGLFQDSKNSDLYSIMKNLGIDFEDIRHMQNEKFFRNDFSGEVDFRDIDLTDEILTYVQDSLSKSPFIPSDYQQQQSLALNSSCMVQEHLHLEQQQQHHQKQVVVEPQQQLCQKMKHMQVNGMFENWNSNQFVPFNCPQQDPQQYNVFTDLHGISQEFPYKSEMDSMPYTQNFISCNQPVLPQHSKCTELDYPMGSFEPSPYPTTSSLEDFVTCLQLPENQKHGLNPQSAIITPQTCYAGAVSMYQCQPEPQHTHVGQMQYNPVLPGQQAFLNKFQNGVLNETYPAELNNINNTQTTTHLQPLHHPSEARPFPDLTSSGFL

SMILES | obesity, adiposity and liver steatosis [1] | activation of human AhR (human AhR)
Cc1ccccc1N=Nc1ccc(NC(=O)c2ccnn2C)c(C)c1 [CH-223191] | significantly reduce obesity and adiposity and ameliorates liver steatosis | 
O=c1cc(-c2ccccc2)oc2c1ccc1ccccc12 [α-naphthoflavone] | significantly reduce obesity and adiposity and ameliorates liver steatosis | 
Cc1cc(C)c(C=C2C(=O)Nc3ccccc32)[nH]1 [SU5416, 3-(3,5-dimethyl-1H-pyrrol-2-ylmethylene)-1,3-dihydro-indole-2-one] |  | activates the human AhR with a potency approaching TCDD
